Assay results published in ChEMBL document CHEMBL4325895, “Discovery and structure-activity-relationship study of novel imidazole cyclopropyl amine analogues for mutant isocitric dehydrogenase 1 (IDH1) inhibitors” (Bioorg Med Chem Lett, 2018).
pIC50: −log10 of the molar value.

Tests used:
[1] = Volume of distribution at steady state in CD-1 mouse at 1 mg/kg, iv by mass spectrometric analysis; format: ADME, organism-based; details: in vivo
[2] = Clearance in CD-1 mouse at 1 mg/kg, iv by mass spectrometric analysis; format: ADME, organism-based; details: in vivo
[3] = Oral bioavailability in CD-1 mouse at 5 mg/kg administered via gavage by mass spectrometric analysis; format: ADME, organism-based; details: in vivo
[4] = Intrinsic clearance in rat liver microsomes assessed per gram of protein at 0.1 uM after 60 mins in presence of NADPH by LC-MS/MS analysis; format: ADME, Microsome; details: 1 h
[5] = target: Isocitrate dehydrogenase [NADP] cytoplasmic (Homo sapiens, UniProt O75874, R132H); assay: Inhibition of IDH1 (unknown origin) R132H mutant using alpha-KG as substrate after 60 mins in presence of NADPH by resazurin dye-based fluorescence assay
Isocitrate dehydrogenase [NADP] cytoplasmic (Homo sapiens, UniProt O75874, R132H), sequence (O75874 2-414 R132H limits assumed): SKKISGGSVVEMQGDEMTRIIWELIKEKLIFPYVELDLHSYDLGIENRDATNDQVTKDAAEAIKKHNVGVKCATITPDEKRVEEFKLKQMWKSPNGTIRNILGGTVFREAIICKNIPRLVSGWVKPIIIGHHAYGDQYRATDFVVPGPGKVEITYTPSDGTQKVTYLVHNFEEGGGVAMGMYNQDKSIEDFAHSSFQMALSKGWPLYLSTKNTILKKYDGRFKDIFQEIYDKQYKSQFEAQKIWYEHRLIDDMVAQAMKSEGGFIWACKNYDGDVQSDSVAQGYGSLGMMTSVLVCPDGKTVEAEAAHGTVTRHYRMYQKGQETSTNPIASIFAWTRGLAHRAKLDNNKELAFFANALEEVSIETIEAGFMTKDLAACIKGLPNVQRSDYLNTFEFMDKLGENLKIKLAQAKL

[6] = Intrinsic clearance in mouse liver microsomes assessed per gram of protein at 0.1 uM after 60 mins in presence of NADPH by LC-MS/MS analysis; format: ADME, Microsome; details: 1 h
[7] = Intrinsic clearance in human liver microsomes assessed per gram of protein at 0.1 uM after 60 mins in presence of NADPH by LC-MS/MS analysis; format: ADME, Microsome; details: 1 h
[8] = AUC in CD-1 mouse at 5 mg/kg, po administered via gavage by mass spectrometric analysis; format: ADME, organism-based; details: in vivo
[9] = Stability in human liver microsomes assessed as parent compound remaining at 0.01 uM after 60 mins by LC-MS/MS analysis; format: ADME, Microsome; details: read-out: Stability
[10] = target: Isocitrate dehydrogenase [NADP] cytoplasmic (Homo sapiens, UniProt O75874, R132C); assay: Inhibition of IDH1 R132C mutant in human HT1080 cells assessed as inhibition of 2HG production after 48 hrs by LC-MS/MS analysis; format: cell-based
Isocitrate dehydrogenase [NADP] cytoplasmic (Homo sapiens, UniProt O75874, R132C), sequence (O75874 2-414 R132C limits assumed): as the sequence (O75874 2-414 R132H limits assumed) above, with H131C counted along it

[11] = AUC in CD-1 mouse at 1 mg/kg, iv by mass spectrometric analysis; format: ADME, organism-based; details: in vivo
[12] = Dose normalized AUC in CD-1 mouse at 5 mg/kg, po administered via gavage by mass spectrometric analysis; format: ADME, organism-based; details: in vivo
[13] = Drug level in human liver microsomes treated with (R)-3-(2-((1-(1-(3-chloro-4-fluorophenyl)-1H-imidazol-4-yl)cyclopropyl)amino)pyrimidin-4-yl)-4-((S)-1-fluoroethyl)oxazolidin-2-one at 0.01 uM after 60 mins by LC-MS/MS analysis; format: ADME, Microsome

Compound | pIC50 [5] | pIC50 [10] | also measured
C[C@H](F)[C@H]1COC(=O)N1c1ccnc(NC2(c3cn(-c4ccc(F)c(Cl)c4)cn3)CC2)n1 | 7.60 | 7.92 | Vd [1]: 1.2 L/kg; clearance [2]: 172 mL/min/kg; bioavailability [3]: 20%; CLint [4]: 133 mL/min/g; CLint [6]: 185 mL/min/g; CLint [7]: 125 mL/min/g; AUC [8]: 25 ng·h/mL; remaining at 1 h, 0.01 µM [9]: 22%; AUC [11]: 40 ng·h/mL
C[C@H](F)[C@H]1COC(=O)N1c1ccnc(NC2(c3cn(-c4ccccc4C(F)(F)F)cn3)CC2)n1 | 6.95 |  | 
C[C@H](F)[C@H]1COC(=O)N1c1ccnc(NC2(c3cn(-c4ccc(F)c(Cl)c4)cn3)CCC2)n1 | 7.40 | 7.68 | CLint [4]: 372 mL/min/g; CLint [6]: 505 mL/min/g; CLint [7]: 195 mL/min/g
C[C@H](F)[C@H]1COC(=O)N1c1ccnc(NC2(c3cn(-c4cccc(Cl)c4)cn3)CC2)n1 | 7.38 | 7.64 | 
C[C@H](F)[C@H]1COC(=O)N1c1ccnc(NC2(c3cn(-c4cccc(C(F)(F)F)c4)cn3)CC2)n1 | 7.49 | 8.00 | CLint [4]: 312 mL/min/g; CLint [6]: 430 mL/min/g; CLint [7]: 153 mL/min/g
C[C@H](F)[C@H]1COC(=O)N1c1cc(Cl)nc(NC2(c3cn(-c4ccc(F)c(Cl)c4)cn3)CC2)n1 | 7.49 | 7.60 | CLint [4]: 123 mL/min/g; CLint [6]: 155 mL/min/g; CLint [7]: 110 mL/min/g
Cc1c(C2(Nc3nccc(N4C(=O)OC[C@@H]4[C@H](C)F)n3)CC2)ncn1-c1cccc(C(F)(F)F)c1 | 7.25 | 7.42 | 
C[C@H](F)[C@H]1COC(=O)N1c1ccnc(NC2(c3cn(-c4cc(Cl)cc(Cl)c4)cn3)CC2)n1 | 7.44 | 7.68 | 
C[C@H](F)[C@H]1COC(=O)N1c1ccnc(NC2(c3cn(-c4ccc(C(F)(F)F)cc4)cn3)CC2)n1 | 7.19 | 7.49 | 
C[C@H](F)[C@H]1COC(=O)N1c1ccnc(NC2(c3cn(-c4ccc(Cl)cc4)cn3)CC2)n1 | 7.27 | 7.25 | 
C[C@H](F)[C@H]1COC(=O)N1c1nc(NC2(c3cn(-c4ccc(F)c(Cl)c4)cn3)CC2)ncc1F | 7.46 | 7.74 | Vd [1]: 0.6 L/kg; clearance [2]: 65 mL/min/kg; bioavailability [3]: 12%; CLint [4]: 89 mL/min/g; CLint [6]: 95 mL/min/g; CLint [7]: 55 mL/min/g; AUC/dose [12]: 31 ng/mL.hr/(mg/kg); AUC [8]: 153 ng·h/mL; AUC [11]: 257 ng·h/mL
C[C@H](F)[C@H]1COC(=O)N1c1ccnc(NC2(c3ncn(-c4cccc(C(F)(F)F)c4)c3C#N)CC2)n1 | 7.07 | 7.26 | 
C[C@H](F)[C@H]1COC(=O)N1c1ccnc(NC2(c3cn(-c4cc(C(F)(F)F)ccn4)cn3)CC2)n1 | 6.60 |  | 
C[C@H](F)[C@H]1COC(=O)N1c1ccnc(NC2(c3ncn(-c4cccc(C(F)(F)F)c4)n3)CC2)n1 | 6.08 |  | 
O=C1OC[C@H]([C@@H](F)CO)N1c1cc(Cl)nc(NC2(c3cn(-c4ccc(F)c(Cl)c4)cn3)CC2)n1 |  |  | Drug uptake [13]: Active
C[C@H](F)[C@H]1COC(=O)N1c1ccnc(NC2(c3cn(-c4cc(F)cc(Cl)c4)cn3)CC2)n1 | 7.57 | 7.74 | CLint [4]: 240 mL/min/g; CLint [6]: 567 mL/min/g; CLint [7]: 350 mL/min/g
C[C@H](F)[C@H]1COC(=O)N1c1ccnc(NC2(c3ncn(-c4cccc(C(F)(F)F)c4)c3Cl)CC2)n1 | 7.39 | 7.59 | 
C[C@H](F)[C@H]1COC(=O)N1c1ccnc(NC2(c3cn(-c4cncc(C(F)(F)F)c4)cn3)CC2)n1 | 6.82 |  | 
C[C@H](F)[C@H]1COC(=O)N1c1ccnc(NC2(c3cn(-c4cccc(C(F)(F)F)n4)cn3)CC2)n1 | 6.58 |  | 
CC(F)(F)[C@H]1COC(=O)N1c1ccnc(NC2(c3cn(-c4ccc(F)c(Cl)c4)cn3)CC2)n1 | 6.14 |  | 
C[C@H](F)[C@H]1COC(=O)N1c1ccnc(NC2(c3cn(-c4ccnc(C(F)(F)F)c4)cn3)CC2)n1 | 6.66 |  | 
